Key:
[1] = target: T1, Alpha-1B adrenergic receptor (Rattus norvegicus, UniProt P15823); assay: DRUGMATRIX: Alpha-1B adrenergic receptor radioligand binding (ligand: prazosin); format: cell membranes, Wistar, Liver, Membrane; conditions: Not Active = under 50% inhibition at 10 µM
T1 sequence (P15823 whole entry): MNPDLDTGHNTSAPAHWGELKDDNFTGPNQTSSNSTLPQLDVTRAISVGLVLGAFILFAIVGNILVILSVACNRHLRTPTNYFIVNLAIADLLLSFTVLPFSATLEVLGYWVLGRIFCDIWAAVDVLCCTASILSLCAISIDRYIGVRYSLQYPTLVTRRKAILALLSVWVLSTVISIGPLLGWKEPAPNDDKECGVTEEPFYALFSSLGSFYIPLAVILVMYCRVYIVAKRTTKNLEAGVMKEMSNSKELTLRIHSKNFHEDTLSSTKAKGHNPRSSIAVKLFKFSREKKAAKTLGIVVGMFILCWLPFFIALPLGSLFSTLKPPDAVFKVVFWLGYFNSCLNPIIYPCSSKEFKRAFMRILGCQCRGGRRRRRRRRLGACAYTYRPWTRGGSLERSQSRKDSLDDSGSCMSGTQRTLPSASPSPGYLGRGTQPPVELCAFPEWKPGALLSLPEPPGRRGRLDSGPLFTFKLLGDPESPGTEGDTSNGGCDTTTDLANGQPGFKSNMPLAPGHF

[2] = target: Sodium-dependent dopamine transporter (Homo sapiens, UniProt Q01959); assay: DRUGMATRIX: Dopamine Transporter radioligand binding (ligand: [125I] RTI-55); format: cell membranes, CHO-K1, Membrane; conditions: cho-k1; Not Active = under 50% inhibition at 10 µM
Sequence of Sodium-dependent dopamine transporter (Q01959 whole entry): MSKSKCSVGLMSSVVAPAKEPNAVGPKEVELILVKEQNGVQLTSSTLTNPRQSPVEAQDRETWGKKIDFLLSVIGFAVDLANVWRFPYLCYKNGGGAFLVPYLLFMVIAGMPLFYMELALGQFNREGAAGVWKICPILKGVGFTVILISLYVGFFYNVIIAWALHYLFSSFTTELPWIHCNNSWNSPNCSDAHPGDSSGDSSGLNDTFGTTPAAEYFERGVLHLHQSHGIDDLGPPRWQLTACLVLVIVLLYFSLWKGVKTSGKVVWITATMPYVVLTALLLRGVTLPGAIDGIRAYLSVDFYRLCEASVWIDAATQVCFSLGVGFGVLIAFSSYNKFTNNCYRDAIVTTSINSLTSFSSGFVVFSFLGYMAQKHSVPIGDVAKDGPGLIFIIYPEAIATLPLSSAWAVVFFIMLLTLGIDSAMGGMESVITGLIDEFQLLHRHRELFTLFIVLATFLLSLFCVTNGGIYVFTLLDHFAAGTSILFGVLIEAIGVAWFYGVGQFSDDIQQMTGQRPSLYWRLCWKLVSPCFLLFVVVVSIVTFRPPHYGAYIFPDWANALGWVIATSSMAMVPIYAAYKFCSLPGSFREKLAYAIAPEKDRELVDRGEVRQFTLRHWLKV

[3] = DRUGMATRIX: Potassium Channel [KATP] radioligand binding (ligand: [3H] Glyburide); format: cell membranes, Membrane; conditions: hit-t15, Not Active = under 50% inhibition at 10 µM
[4] = target: Matrix metalloproteinase-9 (Homo sapiens, UniProt P14780); assay: biochemical; format: cell-based;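 also: inhibition of isolated MMP-9 enzyme activity toward a synthetic peptide substrate, from the DrugMatrix protease screening panel; in other assays of this panel Not Active means under 50% inhibition at 10 µM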
Sequence of Matrix metalloproteinase-9 (P14780 whole entry): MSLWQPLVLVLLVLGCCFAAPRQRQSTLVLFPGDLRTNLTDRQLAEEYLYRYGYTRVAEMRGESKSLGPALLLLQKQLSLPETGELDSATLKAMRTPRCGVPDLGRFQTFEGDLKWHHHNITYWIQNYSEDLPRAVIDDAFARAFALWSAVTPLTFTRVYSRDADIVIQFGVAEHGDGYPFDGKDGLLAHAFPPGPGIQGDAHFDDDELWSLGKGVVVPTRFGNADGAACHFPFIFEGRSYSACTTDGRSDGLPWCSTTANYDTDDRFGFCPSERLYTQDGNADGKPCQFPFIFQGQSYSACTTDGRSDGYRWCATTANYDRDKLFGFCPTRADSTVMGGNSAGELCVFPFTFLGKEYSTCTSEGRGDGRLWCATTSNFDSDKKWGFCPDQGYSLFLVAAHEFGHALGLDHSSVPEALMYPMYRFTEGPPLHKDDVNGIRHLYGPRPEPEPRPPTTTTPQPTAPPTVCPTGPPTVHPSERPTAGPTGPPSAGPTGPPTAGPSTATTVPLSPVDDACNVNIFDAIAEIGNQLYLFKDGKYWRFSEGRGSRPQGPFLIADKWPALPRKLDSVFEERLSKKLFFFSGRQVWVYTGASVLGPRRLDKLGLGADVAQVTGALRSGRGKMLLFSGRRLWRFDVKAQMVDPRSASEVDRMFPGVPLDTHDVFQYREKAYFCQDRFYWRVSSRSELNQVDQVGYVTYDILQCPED

[5] = target: Protein phosphatase 3 catalytic subunit alpha (Homo sapiens, UniProt Q08209); set-up: species or system Escherichia coli;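 also: inhibition of calcineurin (PP2B) enzyme activity, measured with DiFMUP as the substrate; in other assays of this panel Not Active means under 50% inhibition at 10 µM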
[6] = target: Tyrosine-protein kinase Lck (Homo sapiens, UniProt P06239); assay: DRUGMATRIX: Protein Tyrosine Kinase, LCK enzyme inhibition (substrate: Poly(Glu:Tyr)); format: cell-based, Insect cells; conditions: insect cells; Not Active = under 50% inhibition at 10 µM
Sequence of Tyrosine-protein kinase Lck (P06239 whole entry): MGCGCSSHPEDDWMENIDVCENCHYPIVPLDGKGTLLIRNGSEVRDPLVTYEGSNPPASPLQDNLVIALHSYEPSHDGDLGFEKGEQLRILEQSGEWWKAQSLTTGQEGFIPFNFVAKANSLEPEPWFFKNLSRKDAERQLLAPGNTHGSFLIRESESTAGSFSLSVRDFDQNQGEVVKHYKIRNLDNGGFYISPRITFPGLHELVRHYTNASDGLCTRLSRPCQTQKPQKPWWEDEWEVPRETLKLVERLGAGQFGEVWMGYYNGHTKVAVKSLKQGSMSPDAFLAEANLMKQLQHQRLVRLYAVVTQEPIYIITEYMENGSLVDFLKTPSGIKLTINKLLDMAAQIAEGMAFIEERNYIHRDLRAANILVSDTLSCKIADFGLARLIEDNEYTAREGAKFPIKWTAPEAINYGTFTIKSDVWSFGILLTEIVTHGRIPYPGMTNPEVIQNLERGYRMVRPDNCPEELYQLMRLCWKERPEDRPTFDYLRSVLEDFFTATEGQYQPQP

[7] = target: T2, 5-hydroxytryptamine receptor 1A (Rattus norvegicus, UniProt P19327); format: cell membranes, Membrane; conditions: cho-k1; also: in other assays of this panel Not Active means under 50% inhibition at 10 µM
T2 sequence (P19327 whole entry): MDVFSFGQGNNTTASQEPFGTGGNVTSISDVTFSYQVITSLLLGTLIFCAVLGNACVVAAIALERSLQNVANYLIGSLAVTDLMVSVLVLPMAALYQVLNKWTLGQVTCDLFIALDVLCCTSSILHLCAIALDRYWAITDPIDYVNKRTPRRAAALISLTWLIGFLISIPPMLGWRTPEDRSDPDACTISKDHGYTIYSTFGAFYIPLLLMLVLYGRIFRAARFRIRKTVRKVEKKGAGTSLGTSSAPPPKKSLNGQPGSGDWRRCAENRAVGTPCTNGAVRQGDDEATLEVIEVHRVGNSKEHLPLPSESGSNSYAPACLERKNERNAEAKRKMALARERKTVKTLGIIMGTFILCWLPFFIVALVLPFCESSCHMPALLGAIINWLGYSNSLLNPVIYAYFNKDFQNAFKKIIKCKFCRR

Row | Molecule | IC50 [1] | IC50 [2] | IC50 [3] | Ki [3] | IC50 [4] | IC50 [5] | IC50 [6] | IC50 [7] | IC50 ([3]; read-out: IC50) | Ki ([3]; read-out: Ki) | Ki [1] | Ki [2] | Ki [4] | Ki [5] | Ki [6] | Ki [7]
1 | CC(C(=O)O)c1cccc(C(=O)c2ccccc2)c1 (stereo not given) [KETOPROFEN] | Not Active | Not Active | Not Active | Not Active | Not Active | Not Active | Not Active | Not Active | – | – | – | – | – | – | – | –
2 | Nc1ccn([C@@H]2CS[C@H](CO)O2)c(=O)n1 [LAMIVUDINE] | Not Active | Not Active | Not Active | Not Active | Not Active | Not Active | Not Active | Not Active | – | – | – | – | – | – | – | –
3 | O=S(=O)([O-])CCS.[Na+] [MESNA] | Not Active | Not Active | Not Active | Not Active | Not Active | Not Active | Not Active | Not Active | – | – | – | – | – | – | – | –
4 | C#C[C@]1(O)CC[C@H]2[C@@H]3CCc4cc(OC)ccc4[C@H]3CC[C@@]21C [MESTRANOL] | Not Active | Not Active | Not Active | Not Active | Not Active | Not Active | Not Active | Not Active | – | – | – | – | – | – | – | –
5 | CC(=O)Nc1cccc(O)c1 [METACETAMOL] | Not Active | Not Active | Not Active | Not Active | Not Active | Not Active | Not Active | Not Active | – | – | – | – | – | – | – | –
6 | Cc1ncc([N+](=O)[O-])n1CCO [METRONIDAZOLE] | Not Active | Not Active | Not Active | Not Active | Not Active | Not Active | Not Active | Not Active | – | – | – | – | – | – | – | –
7 | CC(C)(C(=O)c1cccnc1)c1cccnc1 [METYRAPONE] | Not Active | Not Active | Not Active | Not Active | Not Active | Not Active | Not Active | Not Active | – | – | – | – | – | – | – | –
8 | Oc1ccc(OCc2ccccc2)cc1 [MONOBENZONE] | Not Active | Not Active | Not Active | Not Active | Not Active | Not Active | Not Active | Not Active | – | – | – | – | – | – | – | –
9 | CC(C)(Oc1ccc(C2CCCc3ccccc32)cc1)C(=O)O (stereo not given) [NAFENOPIN] | Not Active | Not Active | Not Active | Not Active | Not Active | Not Active | Not Active | Not Active | – | – | – | – | – | – | – | –
10 | COc1ccc2cc([C@H](C)C(=O)O)ccc2c1 [NAPROXEN] | Not Active | Not Active | Not Active | Not Active | Not Active | Not Active | Not Active | Not Active | – | – | – | – | – | – | – | –
11 | CC(C)[C@H]1CC[C@H](C(=O)N[C@H](Cc2ccccc2)C(=O)O)CC1 [NATEGLINIDE] | Not Active | Not Active | – | – | Not Active | Not Active | Not Active | Not Active | 1670 nM | 189 nM | – | – | – | – | – | –
12 | CCN[C@@H]1C[C@H](N)[C@@H](O[C@H]2OC(CN)=CC[C@H]2N)[C@H](O)[C@H]1O[C@H]1OC[C@](C)(O)[C@H](NC)[C@H]1O [NETILMICIN] | Not Active | Not Active | Not Active | Not Active | Not Active | Not Active | Not Active | Not Active | – | – | – | – | – | – | – | –
13 | COC(=O)C1=C(C)NC(C)=C(C(=O)OCC(C)C)C1c1ccccc1[N+](=O)[O-] (stereo not given) [NISOLDIPINE] | Not Active | Not Active | Not Active | Not Active | Not Active | Not Active | Not Active | Not Active | – | – | – | – | – | – | – | –
14 | CCOC(=O)C1=C(C)NC(C)=C(C(=O)OC)C1c1cccc([N+](=O)[O-])c1 (stereo not given) [NITRENDIPINE] | Not Active | Not Active | Not Active | Not Active | Not Active | Not Active | Not Active | Not Active | – | – | – | – | – | – | – | –
15 | C#C[C@]1(OC(C)=O)CC[C@H]2[C@@H]3CCC4=CC(=O)CC[C@@H]4[C@H]3CC[C@@]21C [NORETHINDRONE ACETATE] | Not Active | Not Active | Not Active | Not Active | Not Active | Not Active | Not Active | Not Active | – | – | – | – | – | – | – | –
16 | COc1ccc2[nH]c([S+]([O-])Cc3ncc(C)c(OC)c3C)nc2c1 (stereo not given) [OMEPRAZOLE] | Not Active | Not Active | Not Active | Not Active | Not Active | Not Active | Not Active | Not Active | – | – | – | – | – | – | – | –
17 | Cc1nccn1CC1CCc2c(c3ccccc3n2C)C1=O (stereo not given) [ONDANSETRON] | Not Active | Not Active | Not Active | Not Active | Not Active | Not Active | Not Active | Not Active | – | – | – | – | – | – | – | –
18 | CCn1cc(C(=O)O)c(=O)c2cc(F)c(N3CCN(C)CC3)cc21 [PEFLOXACIN] | Not Active | Not Active | Not Active | Not Active | Not Active | Not Active | Not Active | Not Active | – | – | – | – | – | – | – | –
19 | CCCCOc1ccc(OCCCN2CCOCC2)cc1 [PRAMOXINE] | Not Active | Not Active | Not Active | Not Active | Not Active | Not Active | Not Active | Not Active | – | – | – | – | – | – | – | –
20 | O=C(C1CCCCC1)N1CC(=O)N2CCc3ccccc3C2C1 (stereo not given) [PRAZIQUANTEL] | Not Active | Not Active | Not Active | Not Active | Not Active | Not Active | Not Active | Not Active | – | – | – | – | – | – | – | –
21 | CCN(CC)CCOC(=O)c1ccc(N)cc1 [PROCAINE] | Not Active | Not Active | Not Active | Not Active | Not Active | Not Active | Not Active | Not Active | – | – | – | – | – | – | – | –
22 | CCCN(CCC)C(=O)C(CCC(=O)O)NC(=O)c1ccccc1 (stereo not given) [PROGLUMIDE] | Not Active | Not Active | Not Active | Not Active | Not Active | Not Active | Not Active | Not Active | – | – | – | – | – | – | – | –
23 | NC(=O)c1cnccn1 [PYRAZINAMIDE] | Not Active | Not Active | Not Active | Not Active | Not Active | Not Active | Not Active | Not Active | – | – | – | – | – | – | – | –
24 | OC(CCN1CCCCC1)(c1ccccc1)C1CCCCC1 (stereo not given) [TRIHEXYPHENIDYL] | Not Active | Not Active | Not Active | Not Active | Not Active | Not Active | Not Active | Not Active | – | – | – | – | – | – | – | –
25 | Cc1cc2cc3c(C)cc(=O)oc3c(C)c2o1 [TRIOXSALEN] | Not Active | Not Active | Not Active | Not Active | Not Active | Not Active | Not Active | Not Active | – | – | – | – | – | – | – | –
26 | CCCC(CCC)C(=O)O [VALPROIC ACID] | Not Active | Not Active | Not Active | Not Active | Not Active | Not Active | Not Active | Not Active | – | – | – | – | – | – | – | –
27 | CCC1=C[C@@H]2CN(C1)Cc1c([nH]c3ccccc13)[C@@](C(=O)OC)(c1cc3c(cc1OC)N(C)[C@H]1[C@@](O)(C(=O)OC)[C@H](OC(C)=O)[C@]4(CC)C=CCN5CC[C@]31[C@@H]54)C2 [VINORELBINE] | Not Active | Not Active | Not Active | Not Active | Not Active | Not Active | Not Active | Not Active | – | – | – | – | – | – | – | –
28 | CADMIUM DICHLORIDE | Not Active | Not Active | Not Active | Not Active | Not Active | Not Active | Not Active | Not Active | – | – | Not Active | Not Active | Not Active | Not Active | Not Active | Not Active
